The results in this text go back to patent US8519149B2, “Tricyclic compounds as mPGES-1 inhibitors” (Glenmark Pharmaceuticals S.A., priority 2010, dated 2013).

The target in this test is T1, Recombinant human mPGES-1 (Homo sapiens, UniProt O14684).
T1 sequence (O14684 1-152): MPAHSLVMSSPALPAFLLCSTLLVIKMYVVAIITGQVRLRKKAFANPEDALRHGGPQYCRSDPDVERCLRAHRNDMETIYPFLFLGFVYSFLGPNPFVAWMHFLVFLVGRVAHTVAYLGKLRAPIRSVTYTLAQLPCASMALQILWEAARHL
Nature of the test: In-vitro mPGES-1 enzyme inhibition assay (PGE2 formation from PGH2, HTRF detection). Conditions: for inhibition at 1 µM: 1 μM test compound, read-out: Percentage inhibition at 1 μM; for inhibition at 1 µM / inhibition at 10 µM: recombinant human mPGES-1 microsomal fraction; for inhibition at 10 µM: 10 μM test compound, read-out: Percentage inhibition at 10 μM; for IC50: class symbols, selected examples. Format: biochemical. The method in brief: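 IC50 values were derived by nonlinear regression of percent inhibition relative to enzyme reactions run without inhibitor. PGE2 formed from PGH2 with GSH was quantified by antibody-based HTRF after stannous chloride quench. Enzyme source was human mPGES-1 microsomes at 40-60 μg/mL protein; DMSO 0.5% (v/v).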
Background: In TR-FRET formats the signal depends on donor and acceptor labels being close together.

Structures are written as SMILES.

As usually defined, the inhibition is the change of the read-out against control, counted positive when it falls. For `CC1(C)Cc2c(c(C(=O)NC3CCC(F)(F)CC3)cc3nc(Nc4c(Cl)cccc4Cl)[nH]c23)O1` [Example-93, 2-[(2,6-Dichlorophenyl)amino]-N-(4,4-difluorocyclohexyl)-7,7-dimethyl-7,8-dihydro-1H-furo[3,2-e]benzimidazole-5-carboxamide], the inhibition at 1 µM was found to be 83.1% and the inhibition at 10 µM is 80.9%.

Take `CC1(C)Cc2c(c(C(=O)NCC(F)(F)C(F)(F)F)cc3nc(Nc4ccc(F)cc4Cl)[nH]c23)O1` [Example-94, 2-[(2-Chloro-4-fluorophenyl)amino]-7,7-dimethyl-N-(2,2,3,3,3-pentafluoropropyl)-7,8-dihydro-1H-furo[3,2-e]benzimidazole-5-carboxamide]: the inhibition at 1 µM turned out to be 66% and the inhibition at 10 µM was 76.4%.

In general, IC50 refers to the concentration that inhibits the measured activity by half. For the compound `CC1(C)Cc2c(c(C(=O)Nc3nc4ccc(F)cc4s3)cc3nc(Nc4c(Cl)cccc4Cl)[nH]c23)O1` [Example-95, 2-[(2,6-Dichlorophenyl)amino]-N-(6-fluoro-1,3-benzothiazol-2-yl)-7,7-dimethyl-7,8-dihydro-1H-furo[3,2-e]benzimidazole-5-carboxamide], the inhibition at 1 µM was 90.6%, the inhibition at 10 µM was determined as 91.8% and the IC50 was below 50 nM.

With `CC1(C)Cc2c(c(C(=O)Nc3ccc(N4CCCC4)nc3)cc3nc(Nc4c(Cl)cccc4Cl)[nH]c23)O1` [Example-96, 2-[(2,6-Dichlorophenyl)amino]-7,7-dimethyl-N-[6-(pyrrolidin-1-yl)pyridin-3-yl]-7,8-dihydro-1H-furo[3,2-e]benzimidazole-5-carboxamide], the inhibition at 1 µM is 90.4%, the inhibition at 10 µM stood at 95.1% and the half-maximal inhibitory concentration (IC50) was below 50 nM.

Turning to `Cc1ccc(Cl)c(Nc2nc3cc(C(=O)Nc4ccccc4C(F)(F)F)c4c(c3[nH]2)CC(C)(C)O4)c1` [Example-97, 2-[(2-Chloro-5-methylphenyl)amino]-7,7-dimethyl-N-[2-(trifluoromethyl)phenyl]-7,8-dihydro-1H-furo[3,2-e]benzimidazole-5-carboxamide], the inhibition at 1 µM was found to be 96.7%, the inhibition at 10 µM came out at 95.3% and the IC50 was below 50 nM.

With `CC1(C)Cc2c(c(C(=O)Nc3ccccc3C(F)(F)F)cc3nc(Nc4ccccc4C(C)(C)C)[nH]c23)O1` [Example-98, 2-[(2-tert-Butylphenyl)amino]-7,7-dimethyl-N-[2-(trifluoromethyl)phenyl]-7,8-dihydro-1H-furo[3,2-e]benzimidazole-5-carboxamide], the inhibition at 1 µM amounted to 12% and the inhibition at 10 µM turned out to be 13.9%.

As for `COCCn1c(Nc2c(Cl)cccc2Cl)nc2cc(C(=O)Nc3ccc(C(F)(F)F)cc3)c3c(c21)CC(C)(C)O3` [Example-99, 2-[(2,6-Dichlorophenyl)amino]-1-(2-methoxyethyl)-7,7-dimethyl-N-[4-(trifluoromethyl)phenyl]-7,8-dihydro-1H-furo[3,2-e]benzimidazole-5-carboxamide], the inhibition at 1 µM was 95.3%, the inhibition at 10 µM was 99.7% and the IC50 was below 50 nM.

For the compound `COCCn1c(Nc2c(Cl)cccc2Cl)nc2cc(C(=O)Nc3ccccc3C(F)(F)F)c3c(c21)CC(C)(C)O3` [Example-100, 2-[(2,6-Dichlorophenyl)amino]-1-(2-methoxyethyl)-7,7-dimethyl-N-[2-(trifluoromethyl)phenyl]-7,8-dihydro-1H-furo[3,2-e]benzimidazole-5-carboxamide], the inhibition at 1 µM was found to be 96.6%, the inhibition at 10 µM came out at 95.6% and the IC50 is below 50 nM.

With `CC1(C)Cc2c(c(C(=O)Nc3ccc(C(F)(F)F)cn3)cc3nc(Nc4c(Cl)cccc4Cl)[nH]c23)O1` [Example-101, 2-[(2,6-Dichlorophenyl)amino]-7,7-dimethyl-N-[5-(trifluoromethyl)pyridin-2-yl]-7,8-dihydro-1H-furo[3,2-e]benzimidazole-5-carboxamide], the inhibition at 1 µM came out at 97.6%, the inhibition at 10 µM is 98% and the IC50 is below 50 nM.

As to `CC1(C)Cc2c(c(C(=O)Nc3ccc(C(F)(F)F)cc3)cc3nc(Nc4ccccc4C(C)(C)C)[nH]c23)O1` [Example-102, 2-[(2-tert-Butylphenyl)amino]-7,7-dimethyl-N-[4-(trifluoromethyl)phenyl]-7,8-dihydro-1H-furo[3,2-e]benzimidazole-5-carboxamide], the inhibition at 1 µM was found to be 19.3% and the inhibition at 10 µM was determined as 22.8%.

Consider `Cc1ccc(Nc2nc3cc(C(=O)Nc4ccc(C(F)(F)F)cc4)c4c(c3[nH]2)CC(C)(C)O4)c(C)n1` [Example-103, 2-[(2,6-Dimethylpyridin-3-yl)amino]-7,7-dimethyl-N-[4-(trifluoromethyl)phenyl]-7,8-dihydro-1H-furo[3,2-e]benzimidazole-5-carboxamide], for which the inhibition at 1 µM came to 7.88% and the inhibition at 10 µM is 25.8%.

For `CC1(C)Cc2c(c(C(=O)Nc3ccc(F)c(C(F)(F)F)c3)cc3nc(Nc4c(F)cccc4Cl)[nH]c23)O1` [Example-104, 2-[(2-Chloro-6-fluorophenyl)amino]-N-[4-fluoro-3-(trifluoromethyl)phenyl]-7,7-dimethyl-7,8-dihydro-1H-furo[3,2-e]benzimidazole-5-carboxamide], the inhibition at 1 µM amounted to 100%, the inhibition at 10 µM came to 92% and the IC50 was below 50 nM.

On to `CC1(C)Cc2c(c(C(=O)Nc3ccc(F)cc3C#N)cc3nc(Nc4c(F)cccc4Cl)[nH]c23)O1` [Example-105, 2-[(2-Chloro-6-fluorophenyl)amino]-N-(2-cyano-4-fluorophenyl)-7,7-dimethyl-7,8-dihydro-1H-furo[3,2-e]benzimidazole-5-carboxamide], for which the inhibition at 1 µM came out at 91.2%, the inhibition at 10 µM was 95.5% and the IC50 is above 100 nM.

With `Cc1ccc(Nc2nc3cc(C(=O)Nc4ccccc4C(F)(F)F)c4c(c3[nH]2)CC(C)(C)O4)c(C)n1` [Example-106], the inhibition at 1 µM worked out at 9.35% and the inhibition at 10 µM came to 46.2%.

Take `Cc1cccc(Cl)c1Nc1nc2cc(C(=O)Nc3ccc(C(F)(F)F)cc3)c3c(c2[nH]1)CC(C)(C)O3` [Example-108, 2-[(2-Chloro-6-methylphenyl)amino]-7,7-dimethyl-N-[4-(trifluoromethyl)phenyl]-7,8-dihydro-1H-furo[3,2-e]benzimidazole-5-carboxamide]: the inhibition at 1 µM came out at 93.9%, the inhibition at 10 µM worked out at 96.3% and the IC50 is below 50 nM.

`Cc1cccc(Cl)c1Nc1nc2cc(C(=O)Nc3c(F)cc(F)cc3F)c3c(c2[nH]1)CC(C)(C)O3` [Example-109, 2-[(2-Chloro-6-methylphenyl)amino]-7,7-dimethyl-N-(2,4,6-trifluorophenyl)-7,8-dihydro-1H-furo[3,2-e]benzimidazole-5-carboxamide]: the inhibition at 1 µM came out at 93.8%, the inhibition at 10 µM amounted to 98.8% and the IC50 was in the range of 50 to 100 nM.

As to `Cc1cccc(Cl)c1Nc1nc2cc(C(=O)Nc3cc(C(F)(F)F)ccc3F)c3c(c2[nH]1)CC(C)(C)O3` [Example-110, 2-[(2-Chloro-6-methylphenyl)amino]-N-[2-fluoro-5-(trifluoromethyl)phenyl]-7,7-dimethyl-7,8-dihydro-1H-furo[3,2-e]benzimidazole-5-carboxamide], the inhibition at 1 µM turned out to be 96.6%, the inhibition at 10 µM was 97.2% and the IC50 is below 50 nM.
